According to PubChem BioAssay (NCI):
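A five-concentration, 48-hour dose response in 96-well plates underlies each endpoint, interpolated linearly between surrounding concentrations. TGI marks complete inhibition of growth.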

Legend:
Assay in all cases: NCI-60 cell line screen, 48 h
HCT-116 colon = system: HCT-116 colon
EKVX NSCLC = system: EKVX NSCLC
U251 CNS = system: U251 CNS
OVCAR-3 ovarian = system: OVCAR-3 ovarian
PC-3 prostate = system: PC-3 prostate
HCT-15 colon = system: HCT-15 colon
UACC-62 melanoma = system: UACC-62 melanoma
HOP-92 NSCLC = system: HOP-92 NSCLC
CCRF-CEM leukemia = system: CCRF-CEM leukemia
MDA-MB-231 breast = system: MDA-MB-231 breast
HL-60(TB) leukemia = system: HL-60(TB) leukemia
A549 NSCLC = system: A549 NSCLC
SK-MEL-5 melanoma = system: SK-MEL-5 melanoma
SNB-19 CNS = system: SNB-19 CNS
MCF7 breast = system: MCF7 breast
TK-10 renal = system: TK-10 renal
UACC-257 melanoma = system: UACC-257 melanoma
SK-MEL-2 melanoma = system: SK-MEL-2 melanoma
OVCAR-4 ovarian = system: OVCAR-4 ovarian
COLO 205 colon = system: COLO 205 colon
ACHN renal = system: ACHN renal
CAKI-1 renal = system: CAKI-1 renal
M14 melanoma = system: M14 melanoma
NCI-H226 lung = system: NCI-H226 lung
NCI/ADR-RES ovarian = system: NCI/ADR-RES ovarian
DU-145 prostate = system: DU-145 prostate
A498 renal = system: A498 renal
OVCAR-5 ovarian = system: OVCAR-5 ovarian
NCI-H522 lung = system: NCI-H522 lung
UO-31 renal = system: UO-31 renal
HT29 colon = system: HT29 colon
RXF 393 renal = system: RXF 393 renal
SK-MEL-28 melanoma = system: SK-MEL-28 melanoma
T-47D breast = system: T-47D breast
786-0 renal = system: 786-0 renal
SNB-75 CNS = system: SNB-75 CNS
SF-268 CNS = system: SF-268 CNS
SF-539 CNS = system: SF-539 CNS
SN12C renal = system: SN12C renal
HOP-62 NSCLC = system: HOP-62 NSCLC
RPMI-8226 leukemia = system: RPMI-8226 leukemia
OVCAR-8 ovarian = system: OVCAR-8 ovarian
K-562 leukemia = system: K-562 leukemia
SF-295 CNS = system: SF-295 CNS
MOLT-4 leukemia = system: MOLT-4 leukemia
HS 578T breast = system: HS 578T breast
NCI-H23 lung = system: NCI-H23 lung
KM12 colon = system: KM12 colon
IGROV1 ovarian = system: IGROV1 ovarian
SK-OV-3 ovarian = system: SK-OV-3 ovarian
MALME-3M melanoma = system: MALME-3M melanoma
MDA-N = system: MDA-N
SR leukemia = system: SR leukemia
NCI-H460 lung = system: NCI-H460 lung
HCC-2998 colon = system: HCC-2998 colon
SW-620 colon = system: SW-620 colon
LOX IMVI melanoma = system: LOX IMVI melanoma
MDA-MB-435 = system: MDA-MB-435

Measured: TGI

C[C@@H]1OCC(O)C([C@H]2OC(c3ccccc3)=N[C@H]2CO)O1 (stereo partly drawn)
> 100 µM: all assays above
